Activity calls are given as the source filed them.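 How the source made its calls: active means mean IC50 for reducing PEG3 promoter reporter signal at or below a set limit, with IC50 above the limit in both counter screens; inactive means the rest, including counter screen hits.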 A value given as a limit tells only on which side of the number the result lay.

The nature of assay [1]: inhibition of PEG-3 promoter-driven reporter – cell-based, HeLa, luciferase, CREF/GAPDH counter-screen panel, dose response (AID 624167). To be noted: CREF/GAPDH counter-screens; GAPDH; mean of runs. On the technique in general: Counterscreens check selectivity or assay interference.
In the next assay the test system is GAPDH. The description is as above. As to conditions: CREF/GAPDH counter-screens.
Assay [2] concerns the target PEG-3 (UniProt Q6IN02). The description is as above. As to conditions: HeLa PEG-Prom luciferase reporter, overnight, CREF/GAPDH counter-screens, mean of runs. In general terms: Reporter assays use an easily measured gene product as a stand-in for the process of interest.
In assay [3] the test system is PEG-3. The assay is described as above. As to conditions: HeLa PEG-Prom luciferase reporter, overnight, CREF/GAPDH counter-screens.
In the next assay the test system is Rat fibroblasts (CREF). The assay is described as above. As to conditions: CREF/GAPDH counter-screens.
[4] abbreviates: run 1, dose range 1, individual replicate IC50 per panel.
Where [5] appears, read: run 2, dose range 1, individual replicate IC50 per panel.

Sequence of PEG-3 (UniProt Q6IN02) (Q6IN02 whole entry, looked up): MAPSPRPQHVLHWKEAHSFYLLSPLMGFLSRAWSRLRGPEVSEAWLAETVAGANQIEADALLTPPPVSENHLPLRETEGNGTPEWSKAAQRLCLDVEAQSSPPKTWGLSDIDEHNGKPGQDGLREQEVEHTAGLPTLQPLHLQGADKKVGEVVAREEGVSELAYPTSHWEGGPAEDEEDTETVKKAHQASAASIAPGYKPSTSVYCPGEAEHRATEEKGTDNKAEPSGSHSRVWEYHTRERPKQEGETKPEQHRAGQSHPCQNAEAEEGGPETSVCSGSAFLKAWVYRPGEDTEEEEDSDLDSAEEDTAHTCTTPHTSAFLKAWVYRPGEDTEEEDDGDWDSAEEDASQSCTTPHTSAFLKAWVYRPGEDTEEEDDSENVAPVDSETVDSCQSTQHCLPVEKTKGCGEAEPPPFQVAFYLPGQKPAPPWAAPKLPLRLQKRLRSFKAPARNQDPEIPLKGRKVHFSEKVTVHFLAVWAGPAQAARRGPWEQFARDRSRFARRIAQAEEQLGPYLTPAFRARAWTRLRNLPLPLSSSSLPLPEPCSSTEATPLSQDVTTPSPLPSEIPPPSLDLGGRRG

As to `COc1ccccc1Nc1nc(-c2sc(NC(=O)c3ccco3)nc2C)cs1`, the IC50 (usually the concentration at which inhibition is half-maximal) in assay [1] was > 100 µM (inactive); in the assay with GAPDH (setting [4]), more than 100 µM; in the assay on GAPDH (setting [5]), more than 100 µM; in the assay with PEG-3 [3] (setting [4]) it was 7410 nM; with PEG-3 [3] (setting [5]), more than 100000 nM; in the assay with Rat fibroblasts (CREF) (mean of runs) it was > 100 µM (inactive). Further, the IC50 in the assay on Rat fibroblasts (CREF) (setting [4]) and in the assay with Rat fibroblasts (CREF) (setting [5]) was more than 100 µM in each case. Besides, the IC50 entry at PEG-3 [2] is “inactive”.
For the compound `CS(=O)(=O)c1ccc(-c2cn3cc(C(=O)O)ccc3n2)cc1`, the IC50 in assay [1] was 27.6 µM; with GAPDH (setting [4]) it was 24.6 µM; in the assay on GAPDH (setting [5]), 30.5 µM; on PEG-3 [2] it was 10200 nM; in the assay with PEG-3 [3] (setting [4]), 6910 nM; in the assay with PEG-3 [3] (setting [5]) it was 13400 nM. For the same compound, the IC50 in the assay with Rat fibroblasts (CREF) (mean of runs) was 42.9 µM; in the assay with Rat fibroblasts (CREF) (setting [4]), 42.3 µM; in the assay on Rat fibroblasts (CREF) (setting [5]), 43.4 µM.
With `CC1CC(C)C(=O)C(C(CC2CC(=O)NC(=O)C2)OC(=O)CC(=O)c2ccccc2)C1` (configuration not stated), the IC50 was 1.01 µM in assay [1]; 0.605 µM in the assay on GAPDH (setting [4]); 1.42 µM in the assay on GAPDH (setting [5]); 1160 nM on PEG-3 [2]; 1780 nM with PEG-3 [3] (setting [4]); 549 nM in the assay with PEG-3 [3] (setting [5]). Besides, the IC50 was > 100 µM (inactive) with Rat fibroblasts (CREF) (mean of runs), more than 100 µM with Rat fibroblasts (CREF) (setting [4]) and more than 100 µM with Rat fibroblasts (CREF) (setting [5]).
`Cc1cc(C(=O)COC(=O)c2ccccc2O)c(C)n1CC1CCCO1` (configuration not stated): the IC50 result at PEG-3 [2] was “inactive”. In addition, the IC50 was 1240 nM in the assay with PEG-3 [3] (setting [4]); more than 100000 nM with PEG-3 [3] (setting [5]); 3.39 µM in the assay with Rat fibroblasts (CREF) (mean of runs); 3.34 µM in the assay with Rat fibroblasts (CREF) (setting [4]); 3.44 µM in the assay with Rat fibroblasts (CREF) (setting [5]).
As for `O=C(OCC(F)(F)F)c1cccc(COc2ccc3ccccc3c2)c1`, the IC50 at PEG-3 [2] was 1270 nM; in the assay on PEG-3 [3] (setting [4]), 1140 nM; in the assay on PEG-3 [3] (setting [5]) it was 1400 nM; in the assay on Rat fibroblasts (CREF) (mean of runs) it was 16.1 µM; with Rat fibroblasts (CREF) (setting [4]), 14.9 µM; with Rat fibroblasts (CREF) (setting [5]), 17.3 µM.
As to `OCCNc1c2ccccc2nc2ccccc12`, the IC50 at PEG-3 [2] was 8990 nM; in the assay on PEG-3 [3] (setting [4]) it was 10200 nM; in the assay on PEG-3 [3] (setting [5]), 7760 nM; with Rat fibroblasts (CREF) (mean of runs), 0.77 µM; in the assay on Rat fibroblasts (CREF) (setting [4]), more than 80 µM; in the assay on Rat fibroblasts (CREF) (setting [5]) it was 0.77 µM.
`Cc1ccc(-c2nc(-c3ccccn3)no2)cc1`: the IC50 on PEG-3 [2] is 571 nM; in the assay with PEG-3 [3] (setting [4]) it was 479 nM; in the assay on PEG-3 [3] (setting [5]), 663 nM; in the assay with Rat fibroblasts (CREF) (mean of runs), 0.48 µM; in the assay with Rat fibroblasts (CREF) (setting [4]), 0.288 µM; in the assay on Rat fibroblasts (CREF) (setting [5]), 0.672 µM.
On to `Cc1ccc(C(=O)Nc2nc3ccccc3[nH]2)cc1`, for which the IC50 on PEG-3 [2] was 3370 nM; in the assay with PEG-3 [3] (setting [4]), 2020 nM; with PEG-3 [3] (setting [5]), 4710 nM; in the assay with Rat fibroblasts (CREF) (mean of runs), 0.521 µM; in the assay with Rat fibroblasts (CREF) (setting [4]), 0.523 µM; with Rat fibroblasts (CREF) (setting [5]), 0.519 µM.
For the compound `Cc1ccc(-c2nc(-c3ccccn3)no2)cc1Cl`, the IC50 is 1640 nM at PEG-3 [2]; 1190 nM with PEG-3 [3] (setting [4]); 2090 nM with PEG-3 [3] (setting [5]); 1.31 µM in the assay on Rat fibroblasts (CREF) (mean of runs); 1.22 µM with Rat fibroblasts (CREF) (setting [4]); 1.4 µM in the assay with Rat fibroblasts (CREF) (setting [5]).
As to `C=C1CC(COc2ccc3c(C)c(Cl)c(=O)oc3c2)(c2ccccc2)OC1=O` (configuration not stated), the half-maximal inhibitory concentration (IC50) is 5040 nM on PEG-3 [2]; 6470 nM with PEG-3 [3] (setting [4]); 3620 nM with PEG-3 [3] (setting [5]); 9.11 µM with Rat fibroblasts (CREF) (mean of runs); 9.32 µM with Rat fibroblasts (CREF) (setting [4]); 8.9 µM in the assay with Rat fibroblasts (CREF) (setting [5]).
With `Brc1ccc(N/N=C(/N=Nc2nn[nH]n2)c2ccccc2)cc1`, the IC50 was 1000 nM at PEG-3 [2]; 760 nM with PEG-3 [3] (setting [4]); 1240 nM in the assay with PEG-3 [3] (setting [5]); 10.2 µM with Rat fibroblasts (CREF) (mean of runs); 10 µM with Rat fibroblasts (CREF) (setting [4]); 10.4 µM in the assay with Rat fibroblasts (CREF) (setting [5]).
On to `CC1CCN(c2ccc(-c3cccc(NC(=O)C(F)(F)F)c3)nn2)CC1`, for which the concentration for half-maximal inhibition (IC50) at PEG-3 [2] is 2110 nM; in the assay with PEG-3 [3] (setting [4]), 1840 nM; with PEG-3 [3] (setting [5]) it was 2370 nM; with Rat fibroblasts (CREF) (mean of runs), 0.853 µM; with Rat fibroblasts (CREF) (setting [4]) it was 0.869 µM; with Rat fibroblasts (CREF) (setting [5]) it was 0.837 µM.
In the case of `Cc1ccc(-c2nnc(SCC(=O)Nc3ccccc3F)o2)cc1`, the IC50 on PEG-3 [2] is 1540 nM; in the assay with PEG-3 [3] (setting [4]) it was 1450 nM; in the assay on PEG-3 [3] (setting [5]), 1640 nM; with Rat fibroblasts (CREF) (mean of runs) it was 3.27 µM; with Rat fibroblasts (CREF) (setting [4]), 3.45 µM; in the assay with Rat fibroblasts (CREF) (setting [5]), 3.08 µM.
`COc1cc(/C=N/O)ccc1OCc1ccc(C(=O)O)cc1`: the IC50 on PEG-3 [2] was 1610 nM; in the assay with PEG-3 [3] (setting [4]), 1710 nM; with PEG-3 [3] (setting [5]), 1510 nM; in the assay on Rat fibroblasts (CREF) (mean of runs) it was 9.43 µM; with Rat fibroblasts (CREF) (setting [4]), 10.1 µM; in the assay with Rat fibroblasts (CREF) (setting [5]), 8.8 µM.
On to `Cc1ccccc1OCC(=O)Nc1cccc(C(=O)O)c1`, for which the IC50 at PEG-3 [2] was 1850 nM; in the assay on PEG-3 [3] (setting [4]), 1600 nM; with PEG-3 [3] (setting [5]) it was 2100 nM; with Rat fibroblasts (CREF) (mean of runs), 18.4 µM; in the assay with Rat fibroblasts (CREF) (setting [4]), 35.8 µM; with Rat fibroblasts (CREF) (setting [5]), 1.11 µM.
Consider `CCOc1ccc2nc(NC(=O)c3ccccn3)sc2c1`, for which the IC50 result on PEG-3 [2] is “inactive”. The IC50 in the assay on PEG-3 [3] (setting [4]) was 4390 nM; with PEG-3 [3] (setting [5]) it was more than 100000 nM; in the assay on Rat fibroblasts (CREF) (mean of runs), 3.5 µM; in the assay on Rat fibroblasts (CREF) (setting [4]) it was 2.81 µM; in the assay with Rat fibroblasts (CREF) (setting [5]), 4.18 µM.
For the compound `Cc1cc(/C=N/Nc2ncnc(N)c2[N+](=O)[O-])c(C)n1-c1ccccc1`, the concentration for half-maximal inhibition (IC50) on PEG-3 [2] is 11000 nM; in the assay with PEG-3 [3] (setting [4]), 9880 nM; in the assay with PEG-3 [3] (setting [5]), 12000 nM; with Rat fibroblasts (CREF) (mean of runs) it was 1.79 µM; with Rat fibroblasts (CREF) (setting [4]) it was 1.54 µM; with Rat fibroblasts (CREF) (setting [5]), 2.04 µM.
Turning to `CCC(=O)NC(c1cccs1)c1cc(Cl)c2cccnc2c1O` (configuration not stated), the IC50 at PEG-3 [2] is 4680 nM; in the assay with PEG-3 [3] (setting [4]), 4970 nM; with PEG-3 [3] (setting [5]), 4390 nM; with Rat fibroblasts (CREF) (mean of runs), 0.842 µM; in the assay on Rat fibroblasts (CREF) (setting [4]) it was less than 100 µM; in the assay with Rat fibroblasts (CREF) (setting [5]), 0.842 µM.
With `O=C(O)c1cccc(COc2ccc3c(c2)CCC3)c1`, the half-inhibitory concentration (IC50) was 1350 nM on PEG-3 [2]; 823 nM in the assay on PEG-3 [3] (setting [4]); 1880 nM in the assay on PEG-3 [3] (setting [5]); 10.3 µM in the assay on Rat fibroblasts (CREF) (mean of runs); 10.7 µM in the assay with Rat fibroblasts (CREF) (setting [4]); 9.92 µM in the assay on Rat fibroblasts (CREF) (setting [5]).
With `Cc1c(C)c2ccc(OCC(=O)Nc3ccccn3)c(C)c2oc1=O`, the IC50 is 1200 nM on PEG-3 [2]; 1640 nM with PEG-3 [3] (setting [4]); 767 nM with PEG-3 [3] (setting [5]); 1.65 µM in the assay with Rat fibroblasts (CREF) (mean of runs); 1.44 µM in the assay on Rat fibroblasts (CREF) (setting [4]); 1.86 µM in the assay on Rat fibroblasts (CREF) (setting [5]).
On to `CCOC(=O)Cc1csc(NC(=S)NC(=O)c2ccc(Cl)cc2)n1`, for which the IC50 was 5620 nM on PEG-3 [2]; 7550 nM in the assay on PEG-3 [3] (setting [4]); 3680 nM in the assay on PEG-3 [3] (setting [5]); 4.97 µM in the assay with Rat fibroblasts (CREF) (mean of runs); 4.16 µM in the assay on Rat fibroblasts (CREF) (setting [4]); 5.77 µM with Rat fibroblasts (CREF) (setting [5]).
Regarding `CN(C)c1ccc(/C=C2\SC(=O)N(CCc3nnc(N)s3)C2=O)cc1`, the IC50 at PEG-3 [2] was 2960 nM; in the assay on PEG-3 [3] (setting [4]), 3340 nM; with PEG-3 [3] (setting [5]), 2580 nM; with Rat fibroblasts (CREF) (mean of runs), 3.18 µM; with Rat fibroblasts (CREF) (setting [4]), 1.61 µM; in the assay with Rat fibroblasts (CREF) (setting [5]), 4.75 µM.
As for `Cc1ccc(-n2[nH]c(=O)c(-c3ccccn3)c2C)cc1`, the IC50 was 3000 nM at PEG-3 [2]; 2620 nM in the assay with PEG-3 [3] (setting [4]); 3380 nM in the assay with PEG-3 [3] (setting [5]); 11.2 µM in the assay with Rat fibroblasts (CREF) (mean of runs); 7.32 µM in the assay on Rat fibroblasts (CREF) (setting [4]); 15 µM with Rat fibroblasts (CREF) (setting [5]).
